Data: patent US7666868B2, “N-sulphonylpyrroles and their use as histone deacetylase inhibitors” (4SC AG, priority 2005, dated 2010)
pIC50: −log10 of the molar value.

System: HeLa cervical carcinoma cell line
Assay: Cellular cytotoxicity assay (Alamar Blue / Resazurin)
Assay type: cell-based
Conditions: Homo sapiens; HeLa cells, 48 hours incubation; read-out: IC50 (anti-proliferative/cytotoxic potency)
Method: The anti-proliferative activity of the histone deacetylase inhibitory compounds as described herein, is evaluated with the HeLa cervical carcinoma cell line (ATCC CCL2) using the Alamar Blue (Resazurin) cell viability assay (O'Brien et al. Eur J Biochem 267, 5421-5426, 2000). Resazurin is reduced to the fluorescent resorufin by cellular dehydrogenase activity, correlating with viable, proliferating cells. Test compounds are dissolved as 10 mM solutions in dimethylsulfoxide (DMSO) and subsequently diluted in semi-logarithmic steps. HeLa cells are seeded into 96 well flat bottom plates at a density of 3000 cells per well in a volume of 200 μl per well. 24 hours after seeding 1 μl each of the compound dilutions are added into each well of the 96 Well plate. Each compound dilution is tested as quadruplicates. Wells containing untreated control cells are filled with 200 μl DMEM medium containing 0.5% v:v DMSO. The cells are then incubated with the substances for 48 hours at 37° C. in a humidified atmosphere containing 5% carbon dioxide. To determine the viability of the cells, 20 μl of an Resazurin solution (Sigma; 90 mg/l) are added. After 4 hours incubation at 37° C. the fluorescence is measured at an extinction of 544 nm and an emission of 590 nm. For the calculation of the cell viability the emission value from untreated cells is set as 100% viability and the emission rates of treated cells are set in relation to the values of untreated cells. Viabilites are expressed as % values. The corresponding IC50 values of the compounds for cytotoxic activity are determined from the concentration-effect curves by means of non-linear regression.

Row | Structure (SMILES) | pIC50
1 | O=C(/C=C/c1ccn(S(=O)(=O)c2ccc(-c3cccc(CN4CCOCC4)c3)cc2)c1)NO [Compound 64, (E)-N-Hydroxy-3-[1-(3′-morpholin-4-ylmethyl-biphenyl-4-sulfonyl)-1H-pyrrol-3-yl]-acrylamide] | 5.17 to 7.85
2 | O=C(/C=C/c1ccn(S(=O)(=O)c2ccc(-c3ccc4c(c3)OCO4)cc2)c1)NO [Compound 65, (E)-3-[1-(4-Benzo[1,3]dioxol-5-yl-benzenesulfonyl)-1H-pyrrol-3-yl]-N-hydroxy-acrylamide] | 5.17 to 7.85
3 | Nc1cccc(-c2ccc(S(=O)(=O)n3ccc(/C=C/C(=O)NO)c3)cc2)c1 [Compound 66, (E)-3-[1-(3′-Amino-biphenyl-4-sulfonyl)-1H-pyrrol-3-yl]-N-hydroxy-acrylamide] | 5.17 to 7.85
4 | O=C(/C=C/c1ccn(S(=O)(=O)c2ccc(-c3ccc(O)cc3)cc2)c1)NO [Compound 67, (E)-N-Hydroxy-3-[1-(4′-hydroxy-biphenyl-4-sulfonyl)-1H-pyrrol-3-yl]acrylamide] | 5.17 to 7.85
5 | CN1CCC(CCOc2ccc(-c3ccc(S(=O)(=O)n4ccc(C=CC(=O)NO)c4)cc3)cc2)CC1 [Compound 68, (E)-N-Hydroxy-3-(1,4′-[2-(1-methyl-piperidin-4-yl)-ethoxy]biphenyl-4-sulfonyl)-1H-pyrrol-3-yl)-acrylamide] | 5.17 to 7.85
6 | O=C(/C=C/c1ccn(S(=O)(=O)c2ccc(-c3ccc4c(c3)CCO4)cc2)c1)NO [Compound 70, (E)-3-{1-[4-(2,3-Dihydro-benzofuran-5-yl)-benzenesulfonyl]-1H-pyrrol-3-yl}-N-hydroxy-acrylamide] | 5.17 to 7.85
7 | O=C(/C=C/c1ccn(S(=O)(=O)c2ccc(-c3ccc(N4CCOCC4)cc3)cc2)c1)NO [Compound 71, (E)-N-Hydroxy-3-[1-(4′-morpholin-4-yl-biphenyl-4-sulfonyl)-1H-pyrrol-3-yl]-acrylamide] | 5.17 to 7.85
8 | O=C(/C=C/c1ccn(S(=O)(=O)c2ccc(-c3cccc(OCCCN4CCCC4)c3)cc2)c1)NO [Compound 72, (E)-N-Hydroxy-3-{1-[3′-(3-pyrrolidin-1-yl-propoxy)-biphenyl-4-sulfonyl]-1H-pyrrol-3-yl}-acrylamide] | 5.17 to 7.85
9 | CN1CCN(CCCOc2cccc(-c3ccc(S(=O)(=O)n4ccc(/C=C/C(=O)NO)c4)cc3)c2)CC1 [Compound 73, (E)-N-Hydroxy-3-(1-{3′-[3-(4-methyl-piperazin-1-yl)-propoxy]-biphenyl-4-sulfonyl}-1H-pyrrol-3-yl)-acrylamide] | 5.17 to 7.85
10 | O=C(/C=C/c1ccn(S(=O)(=O)c2ccc(-c3cccc(OCCCN4CCOCC4)c3)cc2)c1)NO [Compound 74, (E)-N-Hydroxy-3-{1-[3′-(3-morpholin-4-yl-propoxy)-biphenyl-4-sulfonyl]-1H-pyrrol-3-yl}-acrylamide] | 5.17 to 7.85
11 | CN1CCN(CCOc2ccc(-c3ccc(S(=O)(=O)n4ccc(/C=C/C(=O)NO)c4)cc3)cc2)CC1 [Compound 76, (E)-N-Hydroxy-3-(1-{4′-[2-(4-methyl-piperazin-1-yl)-ethoxy]-biphenyl-4-sulfonyl}-1H-pyrrol-3-yl)-acrylamide] | 5.17 to 7.85
12 | O=C(/C=C/c1ccn(S(=O)(=O)c2ccc(-c3ccc(OCCCN4CCOCC4)cc3)cc2)c1)NO [Compound 78, (E)-N-Hydroxy-3-{1-[4′-(3-morpholin-4-yl-propoxy)-biphenyl-4-sulfonyl]-1H-pyrrol-3-yl}-acrylamide] | 5.17 to 7.85
13 | CN1CCN(CCCOc2ccc(-c3ccc(S(=O)(=O)n4ccc(/C=C/C(=O)NO)c4)cc3)cc2)CC1 [Compound 79, (E)-N-Hydroxy-3-(1-{4′-[3-(4-methyl-piperazin-1-yl)-propoxy]-biphenyl-4-sulfonyl}-1H-pyrrol-3-yl)-acrylamide] | 5.17 to 7.85
14 | O=C(/C=C/c1ccn(S(=O)(=O)c2ccc(-c3cccc(OCCN4CCCC4)c3)cc2)c1)NO [Compound 80, (E)-N-Hydroxy-3-{1-[3′-(2-pyrrolidin-1-yl-ethoxy)-biphenyl-4-sulfonyl]-1H-pyrrol-3-yl}-acrylamide] | 5.17 to 7.85
15 | O=C(/C=C/c1ccn(S(=O)(=O)c2ccc(-c3ccc(OCCCN4CCCC4)cc3)cc2)c1)NO [Compound 81, (E)-N-Hydroxy-3-{1-[4′-(3-pyrrolidin-1-yl-propoxy)-biphenyl-4-sulfonyl]-1H-pyrrol-3-yl}-acrylamide] | 5.17 to 7.85
16 | COc1ccc(-c2ccc(S(=O)(=O)n3ccc(/C=C/C(=O)NO)c3)cc2)cc1 [Compound 82, (E)-N-Hydroxy-3-[1-(4′-methoxy-biphenyl-4-sulfonyl)-1H-pyrrol-3-yl]-acrylamide] | 5.17 to 7.85
17 | O=C(/C=C/c1ccn(S(=O)(=O)c2ccc(-c3cn(CCN4CCOCC4)nn3)cc2)c1)NO [Compound 83, (E)-N-Hydroxy-3-(1-{4-[1-(2-morpholin-4-yl-ethyl)-1H-[1,2,3]triazol-4-yl]-benzenesulfonyl}-1H-pyrrol-3-yl)-acrylamide] | 5.17 to 7.85
18 | O=C(/C=C/c1ccn(S(=O)(=O)c2ccc(-c3ccc(CNC4CCCC4)cc3)cc2)c1)NO [Compound 84, (E)-3-[1-(4′-Cyclopentylaminomethyl-biphenyl-4-sulfonyl)-1H-pyrrol-3-yl]-N-hydroxy-acrylamide] | 5.17 to 7.85
19 | O=C(/C=C/c1ccn(S(=O)(=O)c2ccc(-c3cccc(C(F)(F)F)c3)cc2)c1)NO [Compound 85, (E)-N-Hydroxy-3-[1-(3′-trifluoromethyl-biphenyl-4-sulfonyl)-1H-pyrrol-3-yl]acrylamide] | 5.17 to 7.85
20 | CN(C)Cc1ccc(-c2ccc(S(=O)(=O)n3ccc(/C=C/C(=O)Nc4ccccc4N)c3)cn2)cc1 [Compound 89, (E)-N-(2-Amino-phenyl)-3-{1-[6-(4-dimethylaminomethyl-phenyl)-pyridine-3-sulfonyl]-1H-pyrrol-3-yl}-acrylamide] | 5.17 to 7.85
21 | Cc1nc(-c2ccc(S(=O)(=O)n3ccc(/C=C/C(=O)NO)c3)s2)cs1 [Compound 90, (E)-N-Hydroxy-3-{1-[5-(2-methyl-thiazol-4-yl)-thiophene-2-sulfonyl]-1H-pyrrol-3-yl}-acrylamide] | 5.17 to 7.85
22 | NCc1ccc(-c2ccccc2)cc1S(=O)(=O)n1ccc(/C=C/C(=O)NO)c1 [Compound 91, (E)-3-[1-(4-Aminomethyl-biphenyl-3-sulfonyl)-1H-pyrrol-3-yl]-N-hydroxy-acrylamide] | 5.17 to 7.85
23 | O=C(/C=C/c1ccn(S(=O)(=O)c2ccc(-c3ccc(OCCN4CCCC4)cc3)nc2)c1)NO [Compound 92, (E)-N-Hydroxy-3-(1-{6-[4-(2-pyrrolidin-1-yl-ethoxy)-phenyl]-pyridine-3-sulfonyl}-1H-pyrrol-3-yl)-acrylamide] | 5.17 to 7.85
24 | NCc1cccc(-c2ccc(S(=O)(=O)n3ccc(/C=C/C(=O)NO)c3)s2)c1 [Compound 94, (E)-3-{1-[5-(3-Aminomethyl-phenyl)-thiophene-2-sulfonyl]-1H-pyrrol-3-yl}-N-hydroxy-acrylamide] | 5.17 to 7.85
25 | CN(C)Cc1ccc(-c2ccc(S(=O)(=O)n3ccc(/C=C/C(=O)Nc4ccccc4N)c3)s2)cc1 [Compound 95, (E)-N-(2-Amino-phenyl)-3-{1-[5-(4-dimethylaminomethyl-phenyl)-thiophene-2-sulfonyl]-1H-pyrrol-3-yl}-acrylamide] | 5.17 to 7.85
26 | CN(C)Cc1cccc(-c2ccc(S(=O)(=O)n3ccc(/C=C/C(=O)Nc4ccccc4N)c3)cc2)c1 [Compound 96, (E)-N-(2-Amino-phenyl)-3-[1-(3′-dimethylaminomethyl-biphenyl-4-sulfonyl)-1H-pyrrol-3-yl]-acrylamide] | 5.17 to 7.85
